# How the values were obtained:
# [1] = biological target: Beta-1 adrenergic receptor (Homo sapiens, UniProt P08588); format: functional
# [2] = biological target: T1, 5-hydroxytryptamine receptor 1A (Homo sapiens, UniProt P08908); format: functional, cell-based
# T1 sequence (P08908 whole entry): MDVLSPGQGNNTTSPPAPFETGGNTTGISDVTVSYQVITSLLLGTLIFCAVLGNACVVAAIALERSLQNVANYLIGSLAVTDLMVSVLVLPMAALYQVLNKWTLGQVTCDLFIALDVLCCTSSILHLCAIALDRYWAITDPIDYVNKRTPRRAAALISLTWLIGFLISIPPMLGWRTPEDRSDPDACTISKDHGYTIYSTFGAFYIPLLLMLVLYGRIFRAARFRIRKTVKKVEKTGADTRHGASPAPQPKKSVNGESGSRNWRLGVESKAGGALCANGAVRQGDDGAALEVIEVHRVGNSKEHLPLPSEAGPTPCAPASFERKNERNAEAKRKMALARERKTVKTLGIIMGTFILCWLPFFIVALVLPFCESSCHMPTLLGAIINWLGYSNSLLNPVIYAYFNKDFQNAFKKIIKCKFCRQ
# [3] = biological target: cGMP-inhibited 3',5'-cyclic phosphodiesterase 3A (Homo sapiens, UniProt Q14432); format: functional
# Progesterone receptor = biological target: T2, Progesterone receptor (Homo sapiens, UniProt P06401); format: functional
# T2 sequence (P06401 whole entry): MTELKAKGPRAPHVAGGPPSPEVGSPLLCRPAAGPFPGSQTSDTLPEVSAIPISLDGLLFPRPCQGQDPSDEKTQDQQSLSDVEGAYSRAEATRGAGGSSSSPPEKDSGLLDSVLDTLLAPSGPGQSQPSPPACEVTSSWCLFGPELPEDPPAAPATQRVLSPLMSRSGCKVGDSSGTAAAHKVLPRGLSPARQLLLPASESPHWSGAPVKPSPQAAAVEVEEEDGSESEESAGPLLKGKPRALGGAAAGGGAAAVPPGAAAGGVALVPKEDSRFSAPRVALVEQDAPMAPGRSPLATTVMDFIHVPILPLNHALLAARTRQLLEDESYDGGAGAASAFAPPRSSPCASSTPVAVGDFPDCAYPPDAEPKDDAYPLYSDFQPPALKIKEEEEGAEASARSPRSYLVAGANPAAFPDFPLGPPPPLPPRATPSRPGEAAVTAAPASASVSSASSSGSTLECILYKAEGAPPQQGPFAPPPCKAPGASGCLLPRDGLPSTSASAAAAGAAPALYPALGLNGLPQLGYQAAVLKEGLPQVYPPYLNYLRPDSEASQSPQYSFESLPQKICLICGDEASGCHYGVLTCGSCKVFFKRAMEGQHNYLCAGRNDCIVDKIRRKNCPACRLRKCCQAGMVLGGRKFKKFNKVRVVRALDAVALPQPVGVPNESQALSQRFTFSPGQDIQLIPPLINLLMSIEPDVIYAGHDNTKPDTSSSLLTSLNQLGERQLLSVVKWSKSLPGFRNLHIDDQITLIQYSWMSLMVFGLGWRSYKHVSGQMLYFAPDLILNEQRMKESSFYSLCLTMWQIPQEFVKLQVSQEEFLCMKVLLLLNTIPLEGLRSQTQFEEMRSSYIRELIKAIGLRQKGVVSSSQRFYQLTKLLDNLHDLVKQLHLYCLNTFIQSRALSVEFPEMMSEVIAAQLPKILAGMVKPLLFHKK
# [4] = biological target: T3, Type-1 angiotensin II receptor (Homo sapiens, UniProt P30556)
# T3 sequence (P30556 whole entry): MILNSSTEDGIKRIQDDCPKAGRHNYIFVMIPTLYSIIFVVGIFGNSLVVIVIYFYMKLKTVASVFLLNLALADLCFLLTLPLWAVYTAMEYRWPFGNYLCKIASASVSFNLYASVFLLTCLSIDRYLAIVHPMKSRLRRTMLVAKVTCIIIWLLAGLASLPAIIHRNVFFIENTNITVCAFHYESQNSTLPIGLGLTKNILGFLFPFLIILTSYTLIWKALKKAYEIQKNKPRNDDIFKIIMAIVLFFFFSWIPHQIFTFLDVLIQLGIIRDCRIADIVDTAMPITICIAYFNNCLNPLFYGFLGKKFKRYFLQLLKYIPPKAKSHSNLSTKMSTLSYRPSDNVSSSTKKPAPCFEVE
# Melanocortin receptor 3 = Melanocortin receptor 3 (Homo sapiens, UniProt P41968)
# Adenosine receptor A3 = biological target: T4, Adenosine receptor A3 (Homo sapiens, UniProt P0DMS8)
# T4 sequence (P0DMS8 whole entry): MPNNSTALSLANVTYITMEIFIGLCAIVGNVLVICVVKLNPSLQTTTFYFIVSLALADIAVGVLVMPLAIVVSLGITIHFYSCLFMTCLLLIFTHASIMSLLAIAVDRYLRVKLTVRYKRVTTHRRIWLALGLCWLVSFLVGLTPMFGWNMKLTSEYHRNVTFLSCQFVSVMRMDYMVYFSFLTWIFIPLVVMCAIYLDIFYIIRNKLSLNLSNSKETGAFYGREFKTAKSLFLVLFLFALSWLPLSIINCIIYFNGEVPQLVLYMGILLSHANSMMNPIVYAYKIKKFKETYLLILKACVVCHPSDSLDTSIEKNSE
# [5] = biological target: Sodium-dependent noradrenaline transporter (Homo sapiens, UniProt P23975)
# [6] = biological target: Glutamate receptor ionotropic, NMDA 1 (Rattus norvegicus, UniProt P35439)
# [7] = biological target: T5, Alpha-1A adrenergic receptor (Homo sapiens, UniProt P35348); format: functional, cell-based
# T5 sequence (P35348 whole entry): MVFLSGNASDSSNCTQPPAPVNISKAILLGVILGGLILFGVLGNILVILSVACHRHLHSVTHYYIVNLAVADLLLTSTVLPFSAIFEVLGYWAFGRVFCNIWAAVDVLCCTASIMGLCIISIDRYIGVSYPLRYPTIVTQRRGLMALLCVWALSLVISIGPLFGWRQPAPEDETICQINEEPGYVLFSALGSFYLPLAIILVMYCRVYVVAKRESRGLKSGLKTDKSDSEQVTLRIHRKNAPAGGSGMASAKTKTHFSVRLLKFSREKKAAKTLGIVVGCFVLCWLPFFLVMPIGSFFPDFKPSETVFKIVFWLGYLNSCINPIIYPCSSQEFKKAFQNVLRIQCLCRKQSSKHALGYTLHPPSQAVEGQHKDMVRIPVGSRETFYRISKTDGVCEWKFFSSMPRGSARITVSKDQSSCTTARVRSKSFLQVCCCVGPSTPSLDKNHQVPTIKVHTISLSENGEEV
# Also: assay procedure not described here.
# Chain of cGMP-inhibited 3',5'-cyclic phosphodiesterase 3A (Q14432 whole entry): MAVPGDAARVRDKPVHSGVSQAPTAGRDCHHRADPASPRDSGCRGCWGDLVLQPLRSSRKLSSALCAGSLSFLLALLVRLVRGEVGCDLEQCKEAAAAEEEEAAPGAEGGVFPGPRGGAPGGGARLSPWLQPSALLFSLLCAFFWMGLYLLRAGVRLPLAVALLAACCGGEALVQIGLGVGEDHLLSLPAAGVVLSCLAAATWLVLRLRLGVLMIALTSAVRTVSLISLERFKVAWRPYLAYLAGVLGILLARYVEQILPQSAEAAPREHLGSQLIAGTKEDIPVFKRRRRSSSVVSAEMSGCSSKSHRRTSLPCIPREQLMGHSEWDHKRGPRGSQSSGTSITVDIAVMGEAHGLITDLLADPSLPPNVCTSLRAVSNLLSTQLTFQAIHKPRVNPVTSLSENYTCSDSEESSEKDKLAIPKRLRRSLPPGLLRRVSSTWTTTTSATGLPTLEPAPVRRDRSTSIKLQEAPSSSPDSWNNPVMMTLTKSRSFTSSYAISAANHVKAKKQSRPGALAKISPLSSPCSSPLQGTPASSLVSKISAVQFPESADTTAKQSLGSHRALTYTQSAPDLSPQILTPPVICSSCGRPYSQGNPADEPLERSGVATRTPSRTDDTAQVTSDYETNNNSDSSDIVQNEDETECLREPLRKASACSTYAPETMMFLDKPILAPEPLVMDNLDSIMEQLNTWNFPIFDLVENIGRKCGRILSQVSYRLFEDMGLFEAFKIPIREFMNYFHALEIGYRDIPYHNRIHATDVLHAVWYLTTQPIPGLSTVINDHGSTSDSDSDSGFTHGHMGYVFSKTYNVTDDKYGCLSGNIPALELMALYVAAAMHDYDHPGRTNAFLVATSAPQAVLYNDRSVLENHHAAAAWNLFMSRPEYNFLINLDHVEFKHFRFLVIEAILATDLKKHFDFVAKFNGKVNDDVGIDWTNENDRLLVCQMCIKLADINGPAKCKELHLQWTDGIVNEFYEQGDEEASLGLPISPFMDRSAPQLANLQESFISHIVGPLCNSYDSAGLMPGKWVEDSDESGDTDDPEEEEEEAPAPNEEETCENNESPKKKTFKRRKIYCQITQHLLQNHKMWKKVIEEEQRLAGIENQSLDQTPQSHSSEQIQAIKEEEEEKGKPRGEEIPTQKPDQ
# Chain of Beta-1 adrenergic receptor (P08588 whole entry): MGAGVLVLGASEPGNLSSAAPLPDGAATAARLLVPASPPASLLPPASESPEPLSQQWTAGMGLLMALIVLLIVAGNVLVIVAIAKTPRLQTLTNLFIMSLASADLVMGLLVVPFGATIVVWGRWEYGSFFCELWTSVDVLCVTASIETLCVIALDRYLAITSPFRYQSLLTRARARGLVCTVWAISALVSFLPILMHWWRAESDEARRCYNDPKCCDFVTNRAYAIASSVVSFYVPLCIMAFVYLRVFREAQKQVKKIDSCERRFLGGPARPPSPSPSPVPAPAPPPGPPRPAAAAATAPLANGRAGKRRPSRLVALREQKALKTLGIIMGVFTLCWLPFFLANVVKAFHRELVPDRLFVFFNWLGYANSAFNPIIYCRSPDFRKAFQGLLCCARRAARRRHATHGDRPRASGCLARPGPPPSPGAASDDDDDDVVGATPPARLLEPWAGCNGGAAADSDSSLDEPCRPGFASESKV
# Chain of Melanocortin receptor 3 (P41968 whole entry): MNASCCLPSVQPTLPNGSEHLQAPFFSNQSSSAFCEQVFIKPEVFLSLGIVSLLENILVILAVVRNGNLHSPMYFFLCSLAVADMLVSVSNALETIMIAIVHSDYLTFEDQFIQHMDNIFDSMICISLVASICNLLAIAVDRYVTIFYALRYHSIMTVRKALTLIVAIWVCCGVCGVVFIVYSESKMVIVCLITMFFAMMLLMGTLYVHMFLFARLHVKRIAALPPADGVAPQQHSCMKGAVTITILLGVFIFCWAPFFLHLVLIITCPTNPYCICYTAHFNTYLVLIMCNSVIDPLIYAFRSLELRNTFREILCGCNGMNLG
# Chain of Sodium-dependent noradrenaline transporter (P23975 whole entry): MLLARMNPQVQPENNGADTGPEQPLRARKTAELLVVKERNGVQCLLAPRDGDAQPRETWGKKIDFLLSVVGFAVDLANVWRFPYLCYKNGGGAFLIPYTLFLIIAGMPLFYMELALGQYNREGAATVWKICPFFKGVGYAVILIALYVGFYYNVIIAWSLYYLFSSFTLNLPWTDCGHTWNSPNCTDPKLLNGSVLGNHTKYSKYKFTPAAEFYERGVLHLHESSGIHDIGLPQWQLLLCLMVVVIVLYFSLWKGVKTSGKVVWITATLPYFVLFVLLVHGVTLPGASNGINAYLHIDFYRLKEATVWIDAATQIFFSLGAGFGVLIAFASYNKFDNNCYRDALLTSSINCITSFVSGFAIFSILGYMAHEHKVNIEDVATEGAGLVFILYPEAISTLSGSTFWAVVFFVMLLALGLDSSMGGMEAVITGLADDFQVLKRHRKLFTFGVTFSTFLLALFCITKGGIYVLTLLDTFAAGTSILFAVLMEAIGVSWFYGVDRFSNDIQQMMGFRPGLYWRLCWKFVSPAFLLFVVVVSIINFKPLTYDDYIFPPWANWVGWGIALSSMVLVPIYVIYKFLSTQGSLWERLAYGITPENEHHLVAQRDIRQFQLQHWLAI
Structure (SMILES),AC50 [1],AC50 [2],AC50 [3],AC50 (Progesterone receptor),AC50 [4],AC50 (Melanocortin receptor 3),AC50 (Adenosine receptor A3),AC50 [5],AC50 [6],AC50 [7]
COc1ccc(/C=C/C(=O)Nc2ccccc2C(=O)O)cc1OC,> 30 µM,> 30 µM,24 µM,> 30 µM,> 30 µM,> 30 µM,> 30 µM,> 30 µM,> 30 µM,
NCCCC(O)(P(=O)(O)O)P(=O)(O)O [ALENDRONIC ACID],> 10 µM,> 10 µM,1.09 µM,,> 30 µM,> 30 µM,> 30 µM,,> 10 µM,
Nc1ccc(C(=O)O)c(O)c1 [AMINOSALICYLIC ACID],> 30 µM,> 30 µM,> 30 µM,> 30 µM,> 30 µM,> 30 µM,> 30 µM,> 30 µM,> 30 µM,> 30 µM
COc1cc(OC)c(C(=O)CCCN2CCCC2)c(OC)c1 [BUFLOMEDIL],> 30 µM,> 30 µM,> 30 µM,> 30 µM,> 30 µM,> 30 µM,> 30 µM,> 30 µM,> 30 µM,> 30 µM
CS(=O)(=O)OCCCCOS(C)(=O)=O [BUSULFAN],> 30 µM,> 30 µM,> 30 µM,> 30 µM,> 30 µM,> 30 µM,> 30 µM,> 30 µM,> 30 µM,> 30 µM
CCCCCCNC(=O)n1cc(F)c(=O)[nH]c1=O [CARMOFUR],> 30 µM,> 30 µM,> 30 µM,> 30 µM,> 30 µM,> 30 µM,> 30 µM,> 30 µM,> 30 µM,
CC(C)(C)NCC(O)c1cc(Cl)c(N)c(Cl)c1 (centres undefined) [CLENBUTEROL],0.112 µM,3.02 µM,> 30 µM,> 30 µM,> 30 µM,> 30 µM,> 30 µM,27.9 µM,> 30 µM,> 30 µM
COc1cccc2c1C(=O)c1c(O)c3c(c(O)c1C2=O)C[C@@](O)(C(C)=O)C[C@@H]3O[C@H]1C[C@H](N)[C@H](O)[C@H](C)O1 [DAUNORUBICIN],28 µM,,> 30 µM,7.42 µM,> 30 µM,29 µM,26.5 µM,10.4 µM,> 30 µM,
Clc1ccc2c(c1)C(c1ccccc1)=NCc1nncn1-2 [ESTAZOLAM],> 10 µM,> 10 µM,> 30 µM,,> 30 µM,> 30 µM,> 30 µM,> 30 µM,> 10 µM,> 30 µM
CC(=O)OCC(CCn1cnc2cnc(N)nc21)COC(C)=O [FAMCICLOVIR],> 10 µM,> 10 µM,> 30 µM,,> 30 µM,> 30 µM,> 30 µM,> 10 µM,> 10 µM,> 30 µM
Clc1ccc(C(Cn2ccnc2)OCc2ccc(Sc3ccccc3)cc2)c(Cl)c1 (centres undefined) [FENTICONAZOLE],> 30 µM,> 30 µM,> 30 µM,> 30 µM,23 µM,21 µM,6.4 µM,,> 30 µM,> 30 µM
COC1=C(OC)C(=O)C(CCCCCCCCCCO)=C(C)C1=O [IDEBENONE],> 10 µM,> 10 µM,6.4 µM,,> 30 µM,> 30 µM,> 30 µM,> 10 µM,> 10 µM,> 30 µM
CC#CCn1c(N2CCC[C@@H](N)C2)nc2c1c(=O)n(Cc1nc(C)c3ccccc3n1)c(=O)n2C [LINAGLIPTIN],> 10 µM,,> 30 µM,,> 30 µM,> 30 µM,26.2 µM,> 30 µM,> 10 µM,
O=C1CN=C(c2ccccc2)c2cc(Cl)ccc2N1 [NORDAZEPAM],> 10 µM,> 10 µM,> 30 µM,,> 30 µM,> 30 µM,> 30 µM,> 10 µM,> 10 µM,> 30 µM
C[n+]1ccccc1/C=N/O [PRALIDOXIME],,,> 30 µM,,,,,,> 30 µM,> 30 µM
Cc1cc2nc3c(=O)[nH]c(=O)nc-3n(C[C@H](O)[C@H](O)[C@H](O)COP(=O)(O)O)c2cc1C [RIBOFLAVIN 5'-PHOSPHATE],> 30 µM,,> 30 µM,> 30 µM,> 30 µM,> 30 µM,> 30 µM,> 30 µM,> 30 µM,12 µM
CC(C)CC(N(C)C)C1(c2ccc(Cl)cc2)CCC1 (centres undefined) [SIBUTRAMINE],> 10 µM,> 30 µM,> 30 µM,,> 30 µM,> 30 µM,> 30 µM,,> 10 µM,> 30 µM
CC(C)(C)NC[C@H](O)COc1nsnc1N1CCOCC1 [TIMOLOL],,> 30 µM,> 30 µM,> 30 µM,> 30 µM,> 30 µM,> 30 µM,> 30 µM,> 30 µM,> 30 µM
CN1[C@@H]2CC[C@H]1C[C@@H](OC(=O)c1c[nH]c3ccccc13)C2 [TROPISETRON],> 30 µM,> 30 µM,> 30 µM,,> 30 µM,> 30 µM,> 30 µM,,,> 30 µM
COc1ccc(C(CN(C)C)C2(O)CCCCC2)cc1 (centres undefined) [VENLAFAXINE],> 10 µM,> 30 µM,> 10 µM,,> 30 µM,> 30 µM,> 30 µM,,> 10 µM,> 30 µM

# Source: ChEMBL document CHEMBL5291721, “A preclinical secondary pharmacology resource illuminates target-adverse drug reaction associations of marketed drugs” (Nat Commun, 2023)
